Reference: article PMC9728188, “Cloning and Functional Characterization of Putative Escherichia coli ABC Multidrug Efflux Transporter YddA” (Journal of Microbiology and Biotechnology, 2020)

Key:
Assay type in all cases: cell-based
[1] = biological target: T1, YddA (Escherichia coli, UniProt P31826); experiment: fluorescence efflux and accumulation assays in whole cells, yddA knockout vs parent strains; also inhibits norfloxacin efflux
[2] = biological target: T1, YddA; experiment: inhibition of norfloxacin efflux in whole cells (fluorescence)
From the text: inhibition of norfloxacin efflux in whole cells (fluorescence) on YddA | Efflux of norfloxacin by YddA transporter was inhibited by reserpine

[3] = biological target: T1, YddA; experiment: fluorescence efflux and accumulation assays in whole cells, yddA knockout vs parent strains

T1 sequence (P31826 whole entry): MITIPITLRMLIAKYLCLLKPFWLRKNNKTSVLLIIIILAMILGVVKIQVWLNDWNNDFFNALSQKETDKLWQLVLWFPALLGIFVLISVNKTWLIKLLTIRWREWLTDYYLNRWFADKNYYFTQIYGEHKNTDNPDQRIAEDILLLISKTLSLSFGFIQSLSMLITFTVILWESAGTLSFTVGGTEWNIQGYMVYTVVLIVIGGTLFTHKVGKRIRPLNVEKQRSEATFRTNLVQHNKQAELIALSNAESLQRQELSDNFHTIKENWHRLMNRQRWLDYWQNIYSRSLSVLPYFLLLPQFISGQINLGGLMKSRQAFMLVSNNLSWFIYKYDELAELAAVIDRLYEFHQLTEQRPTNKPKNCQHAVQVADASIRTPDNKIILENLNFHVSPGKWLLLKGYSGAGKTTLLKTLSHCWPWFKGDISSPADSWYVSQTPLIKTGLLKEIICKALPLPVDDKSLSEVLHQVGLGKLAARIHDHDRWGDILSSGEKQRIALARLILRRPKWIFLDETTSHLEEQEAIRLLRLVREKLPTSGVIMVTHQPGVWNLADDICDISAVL

With `CC[n+]1c(-c2ccccc2)c2cc(N)ccc2c2ccc(N)cc21` [EB, ethidium bromide] the “fluorescence efflux and accumulation assays in whole cells, yddA knockout vs par” value [1] was “indicating that yddA knockout reduced EB efflux, which increased the accumulation of EB in cells”.

`COC(=O)[C@H]1[C@H]2C[C@@H]3c4[nH]c5cc(OC)ccc5c4CCN3C[C@H]2C[C@@H](OC(=O)c2cc(OC)c(OC)c(OC)c2)[C@@H]1OC` [reserpine] gave an IC50 [2] of 120 µM.

In the case of `CCn1cc(C(=O)O)c(=O)c2cc(F)c(N3CCNCC3)cc21` [norfloxacin], the “fluorescence efflux and accumulation assays in whole cells, yddA knockout vs par” value [3] is reported as “The results showed that knockout of yddA led to less norfloxacin efflux out of cells”.
